Assay results as given in US20230017045A1, “PYRIDINE AND PYRIMIDINE CARBOXYLATE HERBICIDES AND METHODS OF USE THEREOF” (Dow AgroSciences LLC, priority 2017, published 2023).

These compounds were tested on test plant species (assay: Post-emergent herbicidal activity test (greenhouse, foliar spray, visual growth reduction)). Settings: post-emergence, 336 h, ALOMY: blackgrass (Alopecurus myosuroides), 140 g ai/ha, 14 days after application, read-out: Visual Growth Reduction (%) 14 Days After Application, ALOMY.
Format: in vivo
In short: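 Seedlings were raised 7-21 d in a greenhouse under a 15 h photoperiod until the first or second true leaf. Each compound, dissolved in acetone:DMSO 97:3 and diluted into a surfactant-containing spray mixture, was then applied at 187 L/ha. Plants were subirrigated, and growth reduction was scored visually at 14 d.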
Compound `COC(=O)c1nc(-c2ccc(C(F)(F)F)cc2Cl)ccc1Cl` [F66, methyl 3-chloro-6-(2-chloro-4-(trifluoromethyl)phenyl)picolinate] has a pest or weed control at 140 g/ha of 45 to 59%. With `COC(=O)c1nc(-c2ccc3[nH]ccc3c2)c(F)cc1Cl` [F189, Methyl 3-chloro-5-fluoro-6-(1H-indol-5-yl)picolinate] the pest or weed control at 140 g/ha was 0 to 29%.

Same assay, conditions: post-emergence, 336 h, AMARE: redroot pigweed (Amaranthus retroflexus), 140 g ai/ha, 14 days after application, read-out: Visual Growth Reduction (%) 14 Days After Application, AMARE
With `COC(=O)c1nc(-c2ccc(C(F)(F)F)cc2Cl)ccc1Cl` [F66, methyl 3-chloro-6-(2-chloro-4-(trifluoromethyl)phenyl)picolinate] the pest or weed control at 140 g/ha was 95 to 100%. Work on `COC(=O)c1nc(-c2ccc3[nH]ccc3c2)c(F)cc1Cl` [F189, Methyl 3-chloro-5-fluoro-6-(1H-indol-5-yl)picolinate] yielded a pest or weed control at 140 g/ha of 0 to 29%.

Same assay, conditions: post-emergence, 336 h, AVEFA: wild oat (Avena fatua), 140 g ai/ha, 14 days after application, read-out: Visual Growth Reduction (%) 14 Days After Application, AVEFA
In the case of `COC(=O)c1nc(-c2ccc(C(F)(F)F)cc2Cl)ccc1Cl` [F66, methyl 3-chloro-6-(2-chloro-4-(trifluoromethyl)phenyl)picolinate], the pest or weed control at 140 g/ha is reported as 60 to 74%. Work on `COC(=O)c1nc(-c2ccc3[nH]ccc3c2)c(F)cc1Cl` [F189, Methyl 3-chloro-5-fluoro-6-(1H-indol-5-yl)picolinate] yielded a pest or weed control at 140 g/ha of 0 to 29%.

Same assay, conditions: post-emergence, 336 h, CHEAL: lambsquarters (Chenopodium album), 140 g ai/ha, 14 days after application, read-out: Visual Growth Reduction (%) 14 Days After Application, CHEAL
Compound `COC(=O)c1nc(-c2ccc(C(F)(F)F)cc2Cl)ccc1Cl` [F66, methyl 3-chloro-6-(2-chloro-4-(trifluoromethyl)phenyl)picolinate] has a pest or weed control at 140 g/ha of 85 to 94%. Work on `COC(=O)c1nc(-c2ccc3[nH]ccc3c2)c(F)cc1Cl` [F189, Methyl 3-chloro-5-fluoro-6-(1H-indol-5-yl)picolinate] yielded a pest or weed control at 140 g/ha of 30 to 44%.

Same assay, conditions: post-emergence, 336 h, CIRAR: canada thistle (Cirsium arvense), 140 g ai/ha, 14 days after application, read-out: Visual Growth Reduction (%) 14 Days After Application, CIRAR
`COC(=O)c1nc(-c2ccc(C(F)(F)F)cc2Cl)ccc1Cl` [F66, methyl 3-chloro-6-(2-chloro-4-(trifluoromethyl)phenyl)picolinate] gave a pest or weed control at 140 g/ha of 95 to 100%. For `COC(=O)c1nc(-c2ccc3[nH]ccc3c2)c(F)cc1Cl` [F189, Methyl 3-chloro-5-fluoro-6-(1H-indol-5-yl)picolinate], the pest or weed control at 140 g/ha was 30 to 44%.

Same assay, conditions: post-emergence, 336 h, CYPES: yellow nutsedge (Cyperus esculentus), 140 g ai/ha, 14 days after application, read-out: Visual Growth Reduction (%) 14 Days After Application, CYPES
`COC(=O)c1nc(-c2ccc(C(F)(F)F)cc2Cl)ccc1Cl` [F66, methyl 3-chloro-6-(2-chloro-4-(trifluoromethyl)phenyl)picolinate] gave a pest or weed control at 140 g/ha of 0 to 29%. With `COC(=O)c1nc(-c2ccc3[nH]ccc3c2)c(F)cc1Cl` [F189, Methyl 3-chloro-5-fluoro-6-(1H-indol-5-yl)picolinate] the pest or weed control at 140 g/ha was 0 to 29%.

Same assay, conditions: post-emergence, 336 h, DIGSA: crabgrass (Digitaria sanguinalis), 140 g ai/ha, 14 days after application, read-out: Visual Growth Reduction (%) 14 Days After Application, DIGSA
Compound `COC(=O)c1nc(-c2ccc(C(F)(F)F)cc2Cl)ccc1Cl` [F66, methyl 3-chloro-6-(2-chloro-4-(trifluoromethyl)phenyl)picolinate] has a pest or weed control at 140 g/ha of 95 to 100%. Work on `COC(=O)c1nc(-c2ccc3[nH]ccc3c2)c(F)cc1Cl` [F189, Methyl 3-chloro-5-fluoro-6-(1H-indol-5-yl)picolinate] yielded a pest or weed control at 140 g/ha of 0 to 29%.

Same assay, conditions: post-emergence, 336 h, ECHCG: barnyardgrass (Echinochloa crus-galli), 140 g ai/ha, 14 days after application, read-out: Visual Growth Reduction (%) 14 Days After Application, ECHCG
Compound `COC(=O)c1nc(-c2ccc(C(F)(F)F)cc2Cl)ccc1Cl` [F66, methyl 3-chloro-6-(2-chloro-4-(trifluoromethyl)phenyl)picolinate] has a pest or weed control at 140 g/ha of 95 to 100%. `COC(=O)c1nc(-c2ccc3[nH]ccc3c2)c(F)cc1Cl` [F189, Methyl 3-chloro-5-fluoro-6-(1H-indol-5-yl)picolinate] was tested, and the pest or weed control at 140 g/ha was 0 to 29%.

Same assay, conditions: post-emergence, 336 h, IPOHE: ivy-leaf morning glory (Ipomoea hederacea), 140 g ai/ha, 14 days after application, read-out: Visual Growth Reduction (%) 14 Days After Application, IPOHE
`COC(=O)c1nc(-c2ccc(C(F)(F)F)cc2Cl)ccc1Cl` [F66, methyl 3-chloro-6-(2-chloro-4-(trifluoromethyl)phenyl)picolinate] was tested, and the pest or weed control at 140 g/ha was 95 to 100%. In the case of `COC(=O)c1nc(-c2ccc3[nH]ccc3c2)c(F)cc1Cl` [F189, Methyl 3-chloro-5-fluoro-6-(1H-indol-5-yl)picolinate], the pest or weed control at 140 g/ha is reported as 60 to 74%.

Same assay, conditions: post-emergence, 336 h, KCHSC: kochia (Bassia scoparia), 140 g ai/ha, 14 days after application, read-out: Visual Growth Reduction (%) 14 Days After Application, KCHSC
For `COC(=O)c1nc(-c2ccc(C(F)(F)F)cc2Cl)ccc1Cl` [F66, methyl 3-chloro-6-(2-chloro-4-(trifluoromethyl)phenyl)picolinate], the pest or weed control at 140 g/ha was 60 to 74%. `COC(=O)c1nc(-c2ccc3[nH]ccc3c2)c(F)cc1Cl` [F189, Methyl 3-chloro-5-fluoro-6-(1H-indol-5-yl)picolinate] showed a pest or weed control at 140 g/ha of 0 to 29%.

Same assay, conditions: post-emergence, 336 h, ORYSA: rice (Oryza sativa), 140 g ai/ha, 14 days after application, read-out: Visual Growth Reduction (%) 14 Days After Application, ORYSA
In the case of `COC(=O)c1nc(-c2ccc(C(F)(F)F)cc2Cl)ccc1Cl` [F66, methyl 3-chloro-6-(2-chloro-4-(trifluoromethyl)phenyl)picolinate], the pest or weed control at 140 g/ha is reported as 45 to 59%. Work on `COC(=O)c1nc(-c2ccc3[nH]ccc3c2)c(F)cc1Cl` [F189, Methyl 3-chloro-5-fluoro-6-(1H-indol-5-yl)picolinate] yielded a pest or weed control at 140 g/ha of 0 to 29%.

Same assay, conditions: post-emergence, 336 h, SETFA: giant foxtail (Setaria faberi), 140 g ai/ha, 14 days after application, read-out: Visual Growth Reduction (%) 14 Days After Application, SETFA
Work on `COC(=O)c1nc(-c2ccc(C(F)(F)F)cc2Cl)ccc1Cl` [F66, methyl 3-chloro-6-(2-chloro-4-(trifluoromethyl)phenyl)picolinate] yielded a pest or weed control at 140 g/ha of 95 to 100%. For `COC(=O)c1nc(-c2ccc3[nH]ccc3c2)c(F)cc1Cl` [F189, Methyl 3-chloro-5-fluoro-6-(1H-indol-5-yl)picolinate], the pest or weed control at 140 g/ha was 0 to 29%.

Same assay, conditions: post-emergence, 336 h, SORVU: grain sorghum (Sorghum vulgare), 140 g ai/ha, 14 days after application, read-out: Visual Growth Reduction (%) 14 Days After Application, SORVU
`COC(=O)c1nc(-c2ccc(C(F)(F)F)cc2Cl)ccc1Cl` [F66, methyl 3-chloro-6-(2-chloro-4-(trifluoromethyl)phenyl)picolinate] gave a pest or weed control at 140 g/ha of 85 to 94%. With `COC(=O)c1nc(-c2ccc3[nH]ccc3c2)c(F)cc1Cl` [F189, Methyl 3-chloro-5-fluoro-6-(1H-indol-5-yl)picolinate] the pest or weed control at 140 g/ha was 0 to 29%.

Same assay, conditions: post-emergence, 336 h, STEME: common chickweed (Stellaria media), 140 g ai/ha, 14 days after application, read-out: Visual Growth Reduction (%) 14 Days After Application, STEME
Work on `COC(=O)c1nc(-c2ccc(C(F)(F)F)cc2Cl)ccc1Cl` [F66, methyl 3-chloro-6-(2-chloro-4-(trifluoromethyl)phenyl)picolinate] yielded a pest or weed control at 140 g/ha of 0 to 29%. `COC(=O)c1nc(-c2ccc3[nH]ccc3c2)c(F)cc1Cl` [F189, Methyl 3-chloro-5-fluoro-6-(1H-indol-5-yl)picolinate] showed a pest or weed control at 140 g/ha of 0 to 29%.

Same assay, conditions: post-emergence, 336 h, TRZAS: wheat, spring (Triticum aestivum), 140 g ai/ha, 14 days after application, read-out: Visual Growth Reduction (%) 14 Days After Application, TRZAS
`COC(=O)c1nc(-c2ccc3[nH]ccc3c2)c(F)cc1Cl` [F189, Methyl 3-chloro-5-fluoro-6-(1H-indol-5-yl)picolinate] was tested, and the pest or weed control at 140 g/ha was 0 to 29%.
